# Assay results taken from patent US20240368203A1, “DEGRADATION OF (EGFR) BY CONJUGATION OF EGFR INHIBITORS WITH E3 LIGASE LIGAND AND METHODS OF USE” (BeiGene, Ltd., priority 2022, published 2024).
# Assays:
# EGFR-L858R/T790M/C797S = molecular target: T1, EGFR-L858R/T790M/C797S (Homo sapiens, UniProt P00533, C797S/L858R/T790M); test: EGFR degradation HTRF assay in H1975-clone #25 cells; assay type: cell-based; details: 16 h treatment; for DC50: H1975-clone #25 (L858R/T790M/C797S) cells, IC50 (DC50), read-out: DC50(nM) H1975 # 25-LTC; for Dmax: NCI-H1975, H1975-clone #25 (L858R/T790M/C797S) cells, maximum percentage of inhibition (degradation), read-out: Dmax (%) H1975 # 25-LTC
# T1 construct: expressed in transfected cells; host or cells: H1975-clone #25 (lentiviral over-expression, endogenous EGFR knocked out)
# T1 sequence (P00533 25-1210 T790M/C797S/L858R): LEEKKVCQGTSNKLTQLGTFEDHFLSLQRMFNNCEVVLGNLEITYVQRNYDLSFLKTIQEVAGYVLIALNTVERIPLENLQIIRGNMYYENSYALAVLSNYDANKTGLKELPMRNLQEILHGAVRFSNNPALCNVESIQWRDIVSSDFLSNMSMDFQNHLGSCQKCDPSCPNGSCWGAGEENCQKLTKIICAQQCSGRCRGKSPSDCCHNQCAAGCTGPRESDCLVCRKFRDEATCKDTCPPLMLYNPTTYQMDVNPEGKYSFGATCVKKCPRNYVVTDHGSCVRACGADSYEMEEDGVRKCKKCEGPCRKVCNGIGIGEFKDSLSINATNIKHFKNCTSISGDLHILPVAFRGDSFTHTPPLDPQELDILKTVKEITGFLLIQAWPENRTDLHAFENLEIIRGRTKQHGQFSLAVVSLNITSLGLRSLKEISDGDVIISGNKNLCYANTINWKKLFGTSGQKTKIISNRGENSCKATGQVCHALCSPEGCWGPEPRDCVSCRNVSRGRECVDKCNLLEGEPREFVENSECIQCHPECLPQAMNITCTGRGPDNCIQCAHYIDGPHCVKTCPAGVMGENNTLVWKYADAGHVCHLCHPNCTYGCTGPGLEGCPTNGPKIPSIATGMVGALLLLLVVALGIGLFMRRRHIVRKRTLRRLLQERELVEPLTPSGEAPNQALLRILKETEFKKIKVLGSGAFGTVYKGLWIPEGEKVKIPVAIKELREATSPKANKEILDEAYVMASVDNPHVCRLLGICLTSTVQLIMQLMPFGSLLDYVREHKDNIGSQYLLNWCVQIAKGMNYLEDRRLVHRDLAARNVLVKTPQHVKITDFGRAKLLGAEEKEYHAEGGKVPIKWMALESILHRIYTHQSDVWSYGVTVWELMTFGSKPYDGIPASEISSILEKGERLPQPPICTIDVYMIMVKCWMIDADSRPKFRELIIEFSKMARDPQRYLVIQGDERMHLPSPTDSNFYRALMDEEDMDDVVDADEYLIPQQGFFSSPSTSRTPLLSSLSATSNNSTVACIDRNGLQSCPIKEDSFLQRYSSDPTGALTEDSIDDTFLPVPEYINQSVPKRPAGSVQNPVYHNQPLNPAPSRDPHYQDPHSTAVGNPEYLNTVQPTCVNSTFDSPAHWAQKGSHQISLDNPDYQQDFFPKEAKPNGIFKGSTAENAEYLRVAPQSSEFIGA
# How it was run: (§1)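 H1975 clones with endogenous EGFR knocked out, homozygously expressing lentiviral L858R/T790M/C797S (#25) or Del19/T790M/C797S (#28), treated 16 h at 37° C with 8 doses from 10 uM, 5-fold, in 0.2% DMSO. EGFR in lysates measured by HTRF overnight; DC50 from four-parameter fit of % degradation.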
# EGFR-Del19/T790M/C797S = test: EGFR degradation HTRF assay in H1975-clone #28 cells; assay type: cell-based; details: H1975-clone #28 (Del19/T790M/C797S) cells, 16 h treatment; for DC50: IC50 (DC50), read-out: DC50(nM) H1975 # 28 DTC; for Dmax (%) H1975 # 28 DTC: maximum percentage of inhibition (degradation)
# How it was run: as §1
SMILES,DC50 (EGFR-L858R/T790M/C797S) [nM],Dmax (EGFR-L858R/T790M/C797S) [%],DC50 (EGFR-Del19/T790M/C797S) [nM],Dmax (%) H1975 # 28 DTC (EGFR-Del19/T790M/C797S) [%]
"CCc1cc(Nc2ncc(Br)c(Nc3ccc4nc(C)c(F)cc4c3P(C)(C)=O)n2)c(OC)cc1N1CCC2(CCN(CC3CN(c4cc(F)c([C@H]5CCC(=O)NC5=O)c(F)c4)C3)CC2)CC1 [Example 39, (R)-3-(4-(3-((9-(4-((5-bromo-4-((5-(dimethylphosphoryl)-3-fluoro-2-methylquinolin-6-yl)amino)pyrimidin-2-yl)amino)-2-ethyl-5-methoxyphenyl)-3,9-diazaspiro[5.5]undecan-3-yl)methyl)azetidin-1-yl)-2,6-difluorophenyl)piperidine-2,6-dione]",5.6,93,2.6,92
"CCc1ncc2c(P(C)(C)=O)c(Nc3nc(Nc4cc(CC)c(N5CCC(N6CC7(CN(c8cccc9c8n(C)c(=O)n9C8CCC(=O)NC8=O)C7)C6)CC5)cc4OC)ncc3Br)ccc2n1 (centres unmarked) [Example 25, 3-(4-(6-(1-(4-((5-bromo-4-((5-(dimethylphosphoryl)-2-ethylquinazolin-6-yl)amino)pyrimidin-2-yl)amino)-2-ethyl-5-methoxyphenyl)piperidin-4-yl)-2,6-diazaspiro[3.3]heptan-2-yl)-3-methyl-2-oxo-2,3-dihydro-1H-benzo[d]imidazol-1-yl)piperidine-2,6-dione]",0.5,82,0.8,74
"CCOc1cc(N2CCC(N3CC4(CCN(c5cc(F)c([C@H]6CCC(=O)NC6=O)c(F)c5)CC4)C3)CC2)c(CC)cc1Nc1ncc(Cl)c(Nc2ccc3nc(C)c(F)cc3c2P(C)(C)=O)n1 [Example 59, (R)-3-(4-(2-(1-(4-((5-chloro-4-((5-(dimethylphosphoryl)-3-fluoro-2-methylquinolin-6-yl)amino)pyrimidin-2-yl)amino)-5-ethoxy-2-ethylphenyl)piperidin-4-yl)-2,7-diazaspiro[3.5]nonan-7-yl)-2,6-difluorophenyl)piperidine-2,6-dione]",2.7,92,3.8,87
"CCOc1cc(N2CCC(N3CC4(CCN(c5cccc6c5n(C)c(=O)n6C5CCC(=O)NC5=O)CC4)C3)CC2)c(CC)cc1Nc1ncc(Cl)c(Nc2ccc3nc(C)c(F)cc3c2P(C)(C)=O)n1 (centres unmarked) [Example 32, 3-(4-(2-(1-(4-((5-chloro-4-((5-(dimethylphosphoryl)-3-fluoro-2-methylquinolin-6-yl)amino)pyrimidin-2-yl)amino)-5-ethoxy-2-ethylphenyl)piperidin-4-yl)-2,7-diazaspiro[3.5]nonan-7-yl)-3-methyl-2-oxo-2,3-dihydro-1H-benzol[d]imidazol-1-yl)piperidine-2,6-dione]",1.3,81,1.4,77
"CCc1cc(Nc2ncc(Br)c(Nc3ccc4nc(C)c(F)cc4c3P(C)(C)=O)n2)c(OC)cc1N1CCC(N2CC(CN3CCC(c4cc(F)c([C@H]5CCC(=O)NC5=O)c(F)c4)CC3)C2)CC1 [Example 56, (R)-3-(4-(1-((1-(1-(4-((5-bromo-4-((5-(dimethylphosphoryl)-3-fluoro-2-methylquinolin-6-yl)amino)pyrimidin-2-yl)amino)-2-ethyl-5-methoxyphenyl)piperidin-4-yl)azetidin-3-yl)methyl)piperidin-4-yl)-2,6-difluorophenyl)piperidine-2,6-dione]",5.6,90,8.2,86
"CCc1cc(Nc2ncc(Br)c(Nc3ccc4nc(C)c(F)cc4c3P(C)(C)=O)n2)c(OC)cc1N1CCC2(CC1)CN(C1CCN(c3cc(F)c([C@H]4CCC(=O)NC4=O)c(F)c3)CC1)C2 [Example 62, (R)-3-(4-(4-(7-(4-((5-bromo-4-((5-(dimethylphosphoryl)-3-fluoro-2-methylquinolin-6-yl)amino)pyrimidin-2-yl)amino)-2-ethyl-5-methoxyphenyl)-2,7-diazaspiro[3.5]nonan-2-yl)piperidin-1-yl)-2,6-difluorophenyl)piperidine-2,6-dione]",1.6,95,1.4,89
"CCOc1cc(N2CCC(N3CCC4(CC3)CN(c3cc(F)c([C@H]5CCC(=O)NC5=O)c(F)c3)C4)CC2)c(CC)cc1Nc1ncc(Cl)c(Nc2ccc3nc(C)c(F)cc3c2P(C)(C)=O)n1 [Example 57, (R)-3-(4-(7-(1-(4-((5-chloro-4-((5-(dimethylphosphoryl)-3-fluoro-2-methylquinolin-6-yl)amino)pyrimidin-2-yl)amino)-5-ethoxy-2-ethylphenyl)piperidin-4-yl)-2,7-diazaspiro[3.5]nonan-2-yl)-2,6-difluorophenyl)piperidine-2,6-dione]",2.7,90,4.5,88

# More lines, main results first:
DC50 (EGFR-L858R/T790M/C797S) [nM],Dmax (EGFR-L858R/T790M/C797S) [%],DC50 (EGFR-Del19/T790M/C797S) [nM],SMILES,Dmax (%) H1975 # 28 DTC (EGFR-Del19/T790M/C797S) [%]
2,82,1.8,"COc1cc(N2CCC3(CCN(CC4CCN(c5ccc6c(c5)CN(C5CCC(=O)NC5=O)C6=O)CC4)CC3)CC2)c(C)cc1Nc1ncc(Br)c(Nc2ccc3nc(C)ccc3c2P(C)(C)=O)n1 (centres unmarked) [Example 72, 3-(5-(4-((9-(4-((5-bromo-4-((5-(dimethylphosphoryl)-2-methylquinolin-6-yl)amino)pyrimidin-2-yl)amino)-5-methoxy-2-methylphenyl)-3,9-diazaspiro[5.5]undecan-3-yl)methyl)piperidin-1-yl)-1-oxoisoindolin-2-yl)piperidine-2,6-dione]",82
4.5,94,3.1,"COc1cc(N2CCC3(CC2)CCN(C2CCN(c4cc(F)c([C@H]5CCC(=O)NC5=O)c(F)c4)CC2)CC3)c(C)cc1Nc1ncc(Br)c(Nc2ccc3nccnc3c2P(C)(C)=O)n1 [Example 36, (R)-3-(4-(4-(9-(4-((5-bromo-4-((5-(dimethylphosphoryl)quinoxalin-6-yl)amino)pyrimidin-2-yl)amino)-5-methoxy-2-methylphenyl)-3,9-diazaspiro [5.5]undecan-3-yl)piperidin-1-yl)-2,6-difluorophenyl)piperidine-2,6-dione]",93
3.1,81,2.2,"CCc1ccc2c(P(C)(C)=O)c(Nc3nc(Nc4cc(C)c(N5CCC6(CCN(CCc7cccc8c7n(C)c(=O)n8C7CCC(=O)NC7=O)CC6)CC5)cc4OC)ncc3Br)ccc2n1 (centres unmarked) [Example 68, 3-(4-(2-(9-(4-((5-bromo-4-((5-(dimethylphosphoryl)-2-ethylquinolin-6-yl)amino)pyrimidin-2-yl)amino)-5-methoxy-2-methylphenyl)-3,9-diazaspiro[5.5]undecan-3-yl)ethyl)-3-methyl-2-oxo-2,3-dihydro-1H-benzol[d]imidazol-1-yl)piperidine-2,6-dione]",82
10.8,89,13.3,"CCc1ccc2c(P(C)(C)=O)c(Nc3nc(Nc4cc(CC)c(N5CCC(N6CCC(N7CC(c8cc(F)c([C@H]9CCC(=O)NC9=O)c(F)c8)C7)CC6)CC5)cc4OC)ncc3Br)ccc2n1 (single isomer, unassigned) [Example 30]",87
